Test results: ChEMBL document CHEMBL3272124, “Synthesis of tetrazole ribonucleosides and their evaluation as antiviral agents. 2. 5-Amino-1-(beta-D-ribofuranosyl)-1H-tetrazole and 5-amino-2-(beta-D-ribofuranosyl)-2H-tetrazole” (J Med Chem, 1976)
Activity calls are given as the source filed them. The calls are words filed in the database; no cut-off is given here.

Tested on: Influenza A virus
Test: Antiviral activity against Influenza A virus A2/Asian/J305 infected in Swiss albino mouse assessed as increase in host survival at 50 mg/kg, ip administered as 7 doses immediately before virus inoculation and at 1, 5, 24, 30, 48 and 72 hrs after virus infection measured on 21st day post-infection
Type: functional, organism-based
Parameters: dose 50 mg/kg

SMILES	Activity
NC(=O)c1ncn([C@@H]2O[C@H](CO)[C@@H](O)[C@H]2O)n1	Active
Nc1nnnn1[C@@H]1O[C@H](CO)[C@@H](O)[C@H]1O	inactive
Nc1nnn([C@@H]2O[C@H](CO)[C@@H](O)[C@H]2O)n1	inactive
